This note sets out measurements from patent EP4559922A1, “ANTIHISTAMINE COMPOUND, PREPARATION METHOD THEREFOR AND USE THEREOF” (HC Synthetic Pharmaceutical Co., Ltd., priority 2022, dated 2024).

For series [1], the system named is isolated ileal smooth muscle of guinea pigs. Briefly: Effect on muscle tone of isolated ileal smooth muscle of guinea pigs (no histamine added). The conditions noted are these: X±s; for Smooth muscle tone After administration: 5 minutes after adding drug; for Smooth muscle tone After administration / Smooth muscle tone Before administration: n = 8; for Antispasmodic percentage: relative to tone before adding compound, n = 8, 5 min; for Smooth muscle tone Before administration: baseline. On the procedure: (§1) The guinea pig was knocked unconscious with a wooden stick, and the abdomen was immediately dissected to separate the ileum about 15 cm in length. The contents of the intestinal segment were flushed with Tyrode's solution and placed in Tyrode's solution at a constant temperature of 37°C for later use, and oxygen was supplied simultaneously. The experimental intestinal tract (1 cm in length) was cut and placed into 20 ml of Tyrode's solution at a constant temperature of 37°C with a continuous oxygen supply. One end of the intestine was fixed on the ventilation hook and the other end was connected to the muscle tone transducer and led to the computer interface. The muscle tone value of the ileal smooth muscle was recorded with a BL system. The experiment was carried out after the intestinal segment contraction became stable.
After the ileum contraction curve stabilized, the tone values before adding the drug were recorded, then the drug or DMSO was added, and the average tone value of the ileum contraction curve at that point was recorded 5 minutes later. The operation was repeated 8 times. The antispasmodic percentage was calculated according to the following formula. Antispasmodic percentage =; (Tone value before adding subject compound−Tone value after adding subject compound)/(Tone value before adding subject compound); × 100% [formula]

A short description of series [2]: Accelerated stability test. The conditions noted are these: 40°C ± 2°C, relative humidity 75% ± 5%. Format: physicochemical.
Series [3] deals with histamine-induced asthma in guinea pigs. Kind of series: Antiasthmatic effect on histamine-induced asthma in guinea pigs (latency period). Format: in vivo. The conditions noted are these: X±s, n = 5; for Post-administration latency period: 1 mg/kg oral gavage, sixty minutes after administration, histamine hydrochloride spray, capped at 8 minutes; for Pre-administration latency period: baseline before administration, histamine hydrochloride 0.8 mg/mL sprayed 40 seconds. The protocol: The guinea pigs were placed in a polymethyl methacrylate bell jar and a histamine hydrochloride solution was sprayed ultrasonically (0.8 mg/mL) for 40 seconds. The time point at which the guinea pigs developed asthma was recorded. The time of convulsion and fall was taken as the latency period. Guinea pigs with a latency period exceeding 180 seconds were not selected. […] The guinea pigs were administered by oral gavage at a dose of 2 mL/kg·bw. Sixty minutes after the administration, the guinea pigs were placed in bell jars, and histamine hydrochloride solution was sprayed under the same conditions as in the previous selection. The latency period for the onset of asthma was recorded. […] The results were processed statistically.

The test system of series [4] is histamine. Briefly: Antagonism of histamine-induced contraction of isolated ileal smooth muscle of guinea pigs. The conditions noted are these: x±s, n = 8; for Smooth muscle tone After administration: 3 minutes after adding 0.05 mL compound following histamine; for Smooth muscle tone After addition of histamine: after 0.05 mL histamine, before compound; for Smooth muscle tone Before administration: baseline before histamine. On the procedure: as §1
(§2) After the ileal peristalsis curve stabilized, the tone values before adding the compound were recorded, and then 0.05 mL of histamine was added. […] The operation was repeated 8 times. The antispasmodic percentage was calculated using the following equation. Antispasmodic percentage =; (Tone value after adding histamine−Tone value after adding subject compound)/(Tone value after adding histamine) × 100% [formula]

Test in series [5]: as above
The conditions noted are these: relative to tone after adding histamine; x±s, n = 8; 3 min. On the procedure: as §1, §2

Series [6] is described as follows: Solubility of the compounds in water, methanol and isopropanol. The class given is physicochemical. The following applies: solvent water.
Protocol: The solubility in water, methanol, and isopropanol of the compounds of the present disclosure and the comparative compounds were measured separately.

In brackets after ≈: the same amount, converted by molar mass.

For `O=C1Cc2ccccc2C(=C2CCN(CCCOCOP(=O)(O)O)CC2)c2ccsc21` [Compound III-7], the entries for the “Smooth muscle tone After administration” value in series [1] and in series [4] were 1.20 ± 0.25 g and 1.16 ± 0.22 g, respectively. Also, the Antispasmodic percentage in series [1] (5 min) was 30.23±19.04%; in series [5] it was 66.28±16.16%. The Content in series [2] (Month 0) is reported as 99.7%. Also, the Description entry in series [2] (Month 0), in series [2] (Month 1), in series [2] (Month 2), in series [2] (Month 3) and in series [2] (Month 6) was “White powder” each time. Moreover, the Related substances in series [2] (Month 0) is given as 0.03%; in series [2] (Month 1), 0.05%; in series [2] (Month 2) it was 0.10%; in series [2] (Month 3) it was 0.15%; in series [2] (Month 6), 0.34%. Moreover, the remaining at 730 h in series [2] (storage 75% relative humidity, Month 1, read-out: Content) turned out to be 99.7%. Further, the remaining at 1460 h in series [2] (storage 75% relative humidity, Month 2, read-out: Content) stood at 99.6%. Also, in series [2] (storage 75% relative humidity, Month 3, read-out: Content), the remaining at 2190 h is 99.5%. Further, the remaining at 4380 h in series [2] (storage 75% relative humidity, Month 6, read-out: Content) was 99.2%. For the same compound, in series [3], the Post-administration latency period turned out to be 377.23 ± 50.23 s. Moreover, the “Solubility in Water” value in series [6] turned out to be 20 mg/mL (≈ 43.2 mM).
Take `O=C1Cc2ccccc2C(=C2CCN(CCOP(=O)(O)O)CC2)c2ccsc21` [Compound III-2]: in series [1], the “Smooth muscle tone After administration” value is 1.21 ± 0.24 g and the “Smooth muscle tone Before administration” value is 1.70 ± 0.21 g. This compound also returned an Antispasmodic percentage in series [1] (5 min) of 28.82±16.05%. In series [3], the Post-administration latency period was 377.22 ± 50.87 s and the Pre-administration latency period was 99.48 ± 50.88 s. Moreover, in series [4], the “Smooth muscle tone After administration” value is 1.18 ± 0.21 g, the “Smooth muscle tone After addition of histamine” value was found to be 3.41 ± 0.89 g and the “Smooth muscle tone Before administration” value came out at 1.75 ± 0.18 g. Besides, the Antispasmodic percentage in series [5] amounted to 65.39±17.28%. Further, the “Solubility in Water” value in series [6] was determined as 20 mg/mL (≈ 47.7 mM).
For the compound `O=C1Cc2ccccc2C(=C2CCN(CCCCCOCOP(=O)(O)O)CC2)c2ccsc21` [Compound III-9], the “Smooth muscle tone After administration” value in series [1] came out at 1.12 ± 0.29 g; in series [4], 1.17 ± 0.24 g. Also, the Antispasmodic percentage in series [1] (5 min) came out at 34.50±19.89%; in series [5] it was 67.25±17.74%. Also, the Post-administration latency period in series [3] came to 267.95 ± 51.16 s. Besides, the “Solubility in Water” value in series [6] is 20 mg/mL (≈ 40.7 mM).
As for `O=C1Cc2ccccc2C(=C2CCN(CCCCCOP(=O)(O)O)CC2)c2ccsc21` [Compound III-5], in series [1], the “Smooth muscle tone After administration” value is 1.13 ± 0.31 g and the “Smooth muscle tone Before administration” value stood at 1.70 ± 0.20 g. In series [1] (5 min), this compound showed an Antispasmodic percentage of 33.53±19.21%. In series [3], this compound returned a Post-administration latency period of 375.52 ± 49.26 s and a Pre-administration latency period of 102.32 ± 54.23 s. For the same compound, in series [4], the “Smooth muscle tone After administration” value amounted to 1.20 ± 0.21 g, the “Smooth muscle tone After addition of histamine” value was 3.43 ± 0.93 g and the “Smooth muscle tone Before administration” value stood at 1.73 ± 0.21 g. In series [5], this compound registered an Antispasmodic percentage of 65.01±18.17%. Also, the “Solubility in Water” value in series [6] is 20 mg/mL (≈ 43.3 mM).
Take `Cc1cncc(CN2CCC(=C3c4ccccc4CC(=O)c4sccc43)CC2)c1` [Rupatifen, reference compound]: the results for the “Smooth muscle tone After administration” value in series [1] and in series [4] were 1.31 ± 0.25 g and 1.52 ± 0.46 g, respectively. Besides, the Antispasmodic percentage in series [1] amounted to 23.84±11.10%; in series [5], 55.42±11.38%. This compound yielded a Post-administration latency period in series [3] of 253.23 ± 52.29 s. Moreover, the “Solubility in Water” value in series [6] was “Practically insoluble”.
